This passage reports IC50 and concentration results from ChEMBL document CHEMBL2029277, “Discovery of XL413, a potent and selective CDC7 inhibitor” (Bioorg Med Chem Lett, 2012).

Broadly, the IC50 is the concentration that inhibits the measured activity by half.

Where only a bound is given, the exact number is not on record here.

For data set [1], the target named is Casein kinase II alpha/beta (Homo sapiens, UniProt P68400). Nature of the data set: Inhibition of human tertrameric CK2alphabeta holoenzyme using casein as substrate after 1 to 2 hrs by chemiluminescence assay in presence of 2 uM ATP. It is filed as protein-complex assay.
Chain of Casein kinase II alpha/beta (P67870 whole entry): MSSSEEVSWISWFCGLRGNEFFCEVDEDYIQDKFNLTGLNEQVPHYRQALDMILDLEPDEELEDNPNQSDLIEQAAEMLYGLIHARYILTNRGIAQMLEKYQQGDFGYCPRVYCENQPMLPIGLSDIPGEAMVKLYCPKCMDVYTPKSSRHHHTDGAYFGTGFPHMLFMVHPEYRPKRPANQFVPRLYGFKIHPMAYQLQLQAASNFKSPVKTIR
Chain of Casein kinase II alpha/beta (P68400 whole entry): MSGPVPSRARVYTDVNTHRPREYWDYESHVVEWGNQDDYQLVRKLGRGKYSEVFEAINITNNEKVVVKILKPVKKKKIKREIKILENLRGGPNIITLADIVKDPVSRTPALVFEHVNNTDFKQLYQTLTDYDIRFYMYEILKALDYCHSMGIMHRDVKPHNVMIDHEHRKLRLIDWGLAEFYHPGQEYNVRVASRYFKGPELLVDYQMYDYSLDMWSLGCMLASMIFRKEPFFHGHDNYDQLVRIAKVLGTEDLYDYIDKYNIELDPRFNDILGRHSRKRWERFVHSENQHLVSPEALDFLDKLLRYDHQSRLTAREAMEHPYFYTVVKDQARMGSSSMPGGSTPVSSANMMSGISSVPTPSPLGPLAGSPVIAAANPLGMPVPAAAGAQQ
Data set [2] in a line: Plasma concentration in mouse at 100 mg/kg, po measured after 4 hrs. It is filed as ADME, organism-based. Details: dose 100 mg/kg, route oral.
A short description of data set [3]: Plasma concentration in mouse at 100 mg/kg, po measured after 1 hr. Details: dose 100 mg/kg, route oral. It is filed as ADME, organism-based.
The target of data set [4] is Serine/threonine-protein kinase pim-1 (Homo sapiens, UniProt P11309). The data set is described as follows: Inhibition of N-terminus His-tagged human PIM1 expressed in Escherichia coli using AKRRRLSA as substrate after 1 to 2 hrs by chemiluminescence assay.
Chain of Serine/threonine-protein kinase pim-1 (P11309 whole entry): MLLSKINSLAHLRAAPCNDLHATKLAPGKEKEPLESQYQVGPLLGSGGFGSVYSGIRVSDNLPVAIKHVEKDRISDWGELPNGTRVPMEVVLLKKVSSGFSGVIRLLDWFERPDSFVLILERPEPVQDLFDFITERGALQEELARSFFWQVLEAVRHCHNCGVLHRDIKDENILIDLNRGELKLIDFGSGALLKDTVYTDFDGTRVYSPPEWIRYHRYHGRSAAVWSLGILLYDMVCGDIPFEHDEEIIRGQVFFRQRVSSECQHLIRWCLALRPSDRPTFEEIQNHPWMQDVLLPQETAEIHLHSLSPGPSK
Data set [5] concerns the target T1, Cell division cycle 7-related protein kinase (Homo sapiens, UniProt O00311). The data set is described as follows: Inhibition of N-terminus Myc-tagged human CDC7 expressed in Escherichia coli by chemiluminescence assay in presence of ATP.
Data set [6] concerns the target T1, Cell division cycle 7-related protein kinase. The data set is described as follows: Inhibition of CDC7 in human MDA-MB-231T cells assessed as inhibition of MCM2 phosphorylation at Ser53 after 4 hrs. It is filed as cell-based.

T1 sequence (O00311 whole entry): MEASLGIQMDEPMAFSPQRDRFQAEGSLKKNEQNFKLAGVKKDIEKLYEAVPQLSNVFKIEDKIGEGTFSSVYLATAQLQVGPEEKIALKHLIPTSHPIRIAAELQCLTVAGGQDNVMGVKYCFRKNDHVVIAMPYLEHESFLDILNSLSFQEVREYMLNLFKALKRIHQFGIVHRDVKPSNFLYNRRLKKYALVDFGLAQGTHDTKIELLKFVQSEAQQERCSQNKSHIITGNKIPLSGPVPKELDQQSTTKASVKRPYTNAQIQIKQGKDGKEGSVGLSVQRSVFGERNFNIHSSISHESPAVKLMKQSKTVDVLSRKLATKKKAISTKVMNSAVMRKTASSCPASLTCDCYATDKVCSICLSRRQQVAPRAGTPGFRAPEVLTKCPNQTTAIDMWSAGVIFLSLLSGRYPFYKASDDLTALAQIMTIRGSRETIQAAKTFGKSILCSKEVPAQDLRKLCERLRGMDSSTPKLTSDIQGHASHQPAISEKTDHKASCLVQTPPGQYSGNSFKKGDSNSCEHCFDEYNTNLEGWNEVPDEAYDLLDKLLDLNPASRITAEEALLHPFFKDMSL

As for `O=c1[nH]c([C@@H]2CCCN2)nc2c1oc1ccc(Br)cc12`, the IC50 is 0.091 µM in data set [1], 0.031 µM in data set [4], 0.0048 µM in data set [5] and 0.075 µM in data set [6]. Moreover, in data set [2], the concentration at 4 h stood at 71 µM. The concentration at 1 h in data set [3] was 195 µM.

In data set [2], `Cc1cc(-c2cc(-c3ccccc3)nc(=O)[nH]2)ccc1O` returned a concentration at 4 h of 0.31 µM. For the same molecule, the concentration at 1 h in data set [3] came to 0.82 µM.

Turning to `O=c1[nH]c([C@@H]2C[C@@H](O)CN2)nc2c1oc1ccc(Br)cc12`, the IC50 in data set [1] stood at 0.418 µM; in data set [4], 0.073 µM; in data set [5] it was 0.0091 µM; in data set [6], 0.44 µM.

On to `COc1ccc2oc3c(=O)[nH]c(CN4CC[C@H](O)C4)nc3c2c1`, for which, in data set [5], the 50% inhibitory concentration (IC50) came to 9 µM.

Take `O=c1[nH]cnc2c1oc1ccc(Br)cc12`: the IC50 in data set [1] stood at 1.5 µM; in data set [5], 2 µM.

As for `O=c1[nH]c([C@@H]2C[C@@H](F)CN2)nc2c1oc1ccc(Br)cc12`, the IC50 came out at 0.238 µM in data set [1], 0.046 µM in data set [4], 0.0037 µM in data set [5] and 0.082 µM in data set [6]. For the same molecule, in data set [2], the concentration at 4 h worked out at 46 µM. Moreover, the concentration at 1 h in data set [3] came out at 82 µM.

Turning to `O=c1[nH]c([C@H]2CCCN2)nc2c1oc1ccc(Br)cc12`, the IC50 stood at 1.51 µM in data set [1], 0.104 µM in data set [4], 0.07 µM in data set [5] and 4.59 µM in data set [6].

In data set [2], `O=c1[nH]c(CN2CC[C@H](O)C2)nc2c1oc1ccc(Br)cc12` returned a concentration at 4 h of 49 µM. In data set [3], this molecule displayed a concentration at 1 h of 101 µM.

Regarding `COc1ccc2oc3c(=O)[nH]c([C@@H]4CCCN4)nc3c2c1`, the half-inhibitory concentration (IC50) in data set [1] was determined as 0.238 µM; in data set [4] it was 0.077 µM; in data set [5], 0.0061 µM; in data set [6], 1.37 µM.

Turning to `O=c1[nH]c(C2CCNCC2)nc2c1oc1ccc(Br)cc12`, the IC50 came to 0.05 µM in data set [1], 0.022 µM in data set [4], 0.0062 µM in data set [5] and 1.43 µM in data set [6].

`CC(N)c1nc2c(oc3ccc(Br)cc32)c(=O)[nH]1` (racemic): the IC50 was determined as 0.757 µM in data set [1], 0.072 µM in data set [4], 0.0079 µM in data set [5] and 0.874 µM in data set [6].

Regarding `O=C(O)C1CCN(Cc2nc3c(oc4ccc(Br)cc43)c(=O)[nH]2)C1` (racemic), the IC50 in data set [1] was 0.049 µM; in data set [4], 0.142 µM; in data set [5], 0.013 µM; in data set [6], over 40 µM.

Turning to `COc1ccc2oc3c(=O)[nH]c([C@@H]4C[C@@H](F)CN4)nc3c2c1`, the IC50 stood at 0.733 µM in data set [1], 0.102 µM in data set [4], 0.0039 µM in data set [5] and 0.292 µM in data set [6].

`O=c1[nH]c([C@@H]2C[C@@H](F)CN2)nc2c1oc1ccc(Cl)cc12`: the IC50 was found to be 0.752 µM in data set [1], 0.065 µM in data set [4], 0.004 µM in data set [5] and 0.167 µM in data set [6].

As to `CO[C@H]1CCN(Cc2nc3c(oc4ccc(Br)cc43)c(=O)[nH]2)C1`, the IC50 in data set [1] is 0.512 µM; in data set [4], 0.077 µM; in data set [5] it was 0.011 µM; in data set [6], 0.362 µM.

On to `O=c1[nH]c(CN2CC[C@H](O)C2)nc2c1oc1cc(O)c(Br)cc12`, for which the concentration at 4 h in data set [2] came out at 0.15 µM. Moreover, in data set [3], the concentration at 1 h was determined as 1.4 µM. In addition, in data set [5], the IC50 stood at 1 µM.

Consider `CN1CCC[C@H]1c1nc2c(oc3ccc(Br)cc32)c(=O)[nH]1`, for which the IC50 stood at 0.063 µM in data set [1], 0.011 µM in data set [4], 0.0073 µM in data set [5] and 0.802 µM in data set [6].

With `O=c1[nH]c(C2CCCNC2)nc2c1oc1ccc(Br)cc12` (racemic), the IC50 amounted to 0.175 µM in data set [1], 0.039 µM in data set [4], 0.015 µM in data set [5] and 2.36 µM in data set [6].

Take `O=c1[nH]c([C@@H]2C[C@H](F)CN2)nc2c1oc1ccc(Br)cc12`: the IC50 in data set [1] came out at 3.62 µM; in data set [4], 0.011 µM; in data set [5], 0.011 µM; in data set [6], 0.566 µM.

Turning to `O=c1[nH]c(CN2CC[C@H](O)C2)nc2c1oc1ccc(Cl)cc12`, the half-maximal inhibitory concentration (IC50) in data set [5] worked out at 2.2 µM.

Turning to `O=c1[nH]c(C2CNC2)nc2c1oc1ccc(Br)cc12`, the IC50 in data set [1] stood at 0.043 µM; in data set [4] it was 0.018 µM; in data set [5] it was 0.0077 µM; in data set [6], 2.54 µM.

In the case of `O=c1[nH]c(CN2CC[C@H](O)C2)nc2c1oc1ccc3c(c12)OCO3`, the IC50 in data set [5] came out at 14 µM.
